Consider one substance from patent US20180296630A1, “METHODS AND COMPOSITIONS FOR PREVENTING OR TREATING OPHTHALMIC CONDITIONS” (Stealth BioTherapeutics Corp, priority 2012, published 2018).

For this assay, the system named is GTM cells. The experiment in a line: Mitochondrial membrane potential of GTM cells exposed to H2O2 (TMRM, confocal microscopy / flow cytometry). In kind it is cell-based, human. The source says: Methods to measure mitochondrial membrane potential using TMRM useful in the studies of the present invention have been described by Andrea Rasola and Massimo Geuna, A flow cytometry assay simultaneously detects independent apoptotic parameters, Cytometry 45:151-157, 2001; Mitoprobe™ JC-1 Kit for Flow Cytometry, Molecular Probes, Invitrogen, USA.
The mitochondrial membrane potential (Δψm) of HTM and GTM cells was investigated when those cells were exposed to hydrogen peroxide prior to administration of D-Arg-2′,6′-Dmt-Lys-Phe-NH2. First, the mitochondrial membrane potential was measured using confocal microscopy of cells labeled with tetramethylrhodamine methyl ester (TMRM, 500 nM×30 min) (FIG. 15). The mitochondrial membrane potential was also measured using flow cytometry (FIGS. 16-17) by labeling cells with the mitochondrion-selective probe tetramethylrhodamine methyl ester (TMRM, 500 nM×30 min).
The morphology of GTM cells was investigated when those cells were exposed to D-Arg-2′,6′-Dmt-Lys-Phe-NH2 prior to administration of hydrogen peroxide. […] That is, hydrogen peroxide mediated cell loss and rounding was diminished in cells exposed to D-Arg-2′,6′-Dmt-Lys-Phe-NH2 peptide. The mitochondrial membrane potential (Δψm) of HTM and GTM cells was also investigated when those cells were exposed to D-Arg-2′,6′-Dmt-Lys-Phe-NH2 prior to administration of hydrogen peroxide. The mitochondrial membrane potential was measured using confocal microscopy of cells labeled with tetramethylrhodamine methyl ester (TMRM, 500 nM×30 min) (FIG. 19-21). […] As such, D-Arg-2′,6′-Dmt-Lys-Phe-NH2 provides a protective effect against oxidative stress in GTM cells.
A general note: A flow cytometer gives signals particle by particle.

For D-Arg-2′,6′-Dmt-Lys-Phe-NH2, under “GTM cells, co-treatment, 200 μM H2O2, confocal”, the “decrease in mitochondrial potential (Δψm) elicited by H2O2” value was “dose-dependently inhibited the decrease”. In addition, the “loss of mitochondrial membrane potential caused by H2O2” value (GTM cells, co-treatment, 400 μM H2O2, dose-dependent, confocal) is “reduced the loss”. The mitochondrial membrane potential result (cells exposed to hydrogen peroxide prior to administration of peptide (Group A)) is “improves” and the mitochondrial membrane potential entry (pre-treatment with peptide before hydrogen peroxide (Group B)) was “dose-dependently improves”.
